Test results reported in US20260167677A1, “ANTI-ADAM10 ANTIBODIES AND USES IN TREATMENT OF CANCER” (Memorial Sloan Kettering Cancer Center, priority 2022, published 2026).

Key:
[1] = tested on: xenografted COLO205 cells; assay: Mouse model of CRC using xenografted COLO205 cells; type: in vivo; conditions: first study; 1H5 30 mg/kg i.p. biweekly, irinotecan 20 mg/kg i.p. once a week
Experimental: For the mouse model, COLO205 cells were grown in monolayer culture, harvested by trypsinization, and implanted subcutaneously into the right flank of 6- to 8-week-old female athymic nude mice. Approximately 10 million cells were injected per mouse. Mice were randomized into 4 groups (each n=4).
Tumor volume was determined by external caliper and calculated by the modified ellipsoidal formula: V=½(Length×Width^2). Antitumor efficacy was calculated as (1-dT/dC)[…], where dT is the final tumor volume minus the starting tumor volume from the treatment group, and dC is the final tumor volume minus the starting tumor volume of the control group (Rios-Doria et al., 2015). Error bars were calculated as SEM. The mouse body weight and general health were monitored daily.
In a second study, 1H5 at two different doses was used in the mouse model. For the mouse model, approximately five million cells were implanted (subcutaneous with Matrigel) into 6- to 8-week-old female athymic nude mice. Mice were randomized into 3 groups (each n=5).

[2] = molecular target: T1, human ADAM10 ECD (Homo sapiens, UniProt O14672); assay: Fluorogenic peptide cleavage assay, human ADAM10 ECD; type: biochemical; conditions: 1:1 molar ratio; human or bovine ADAM10 ECD not told apart
T1 construct: Human ADAM10 ECD (20-650); Fc-tag (human); made in house; host or cells: baculovirus-infected Hi5 insect cells
T1 sequence (O14672 20-650): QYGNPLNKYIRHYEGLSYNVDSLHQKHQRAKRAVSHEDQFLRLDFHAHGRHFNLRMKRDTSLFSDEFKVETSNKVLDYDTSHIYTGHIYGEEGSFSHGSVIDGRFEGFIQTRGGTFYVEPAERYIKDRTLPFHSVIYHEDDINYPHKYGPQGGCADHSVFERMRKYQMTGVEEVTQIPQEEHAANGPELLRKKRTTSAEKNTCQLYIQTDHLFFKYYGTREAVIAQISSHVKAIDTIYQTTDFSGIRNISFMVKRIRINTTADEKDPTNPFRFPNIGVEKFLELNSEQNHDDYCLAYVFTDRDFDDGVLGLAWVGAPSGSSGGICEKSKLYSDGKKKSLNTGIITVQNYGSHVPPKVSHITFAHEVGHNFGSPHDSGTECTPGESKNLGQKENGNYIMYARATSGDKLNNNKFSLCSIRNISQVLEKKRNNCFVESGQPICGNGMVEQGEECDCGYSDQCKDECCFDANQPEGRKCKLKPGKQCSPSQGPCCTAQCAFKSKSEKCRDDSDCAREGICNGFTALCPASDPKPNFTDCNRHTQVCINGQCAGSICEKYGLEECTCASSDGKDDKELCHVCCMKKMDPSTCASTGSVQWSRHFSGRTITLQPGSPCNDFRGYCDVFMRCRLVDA
Experimental: ADAM10 ECD-antibody or ADAM10 ECD-inhibitor (broad spectrum metalloprotease inhibitor GM6001) complexes were formed at a 1:1 molar ratio prior to the assay. The assay was carried out by mixing 50 μM of a fluorogenic peptide substrate Mca-PLAQAV-Dpa with ADAM10-antibody/inhibitor complexes at 37° C., and monitoring the progress of the enzymatic reaction by fluorescence emission (excitation 320 nm and emission 405 nm) over a time course of 1 hour using a SpectraMax M5. ADAM10 ECD (bovine or human) alone was used as positive control. The substrate peptide was derived from TNFalpha and contains a highly fluorescent 7-methoxycoumarin group and a quencher group, 2,4-dinitrophenyl. ADAM10 cleaves the amide bond between the fluorescent and the quencher group causing an increase in fluorescence (Seegar et al., 2017; Black & Becherer, 1998).

CCc1c2c(nc3ccc(OC(=O)N4CCC(N5CCCCC5)CC4)cc13)-c1cc3c(c(=O)n1C2)COC(=O)[C@]3(O)CC [Irinotecan, irinotecan, reference compound]
tumor growth inhibition [1]: 48%

CNC(=O)[C@H](Cc1c[nH]c2ccccc12)NC(=O)[C@@H](CC(=O)NO)CC(C)C [broad-spectrum inhibitor, GM6001, reference compound]
effect on substrate cleavage [2]: marginal inhibition
